SMILES strings stand for the structures. Read-outs that look alike come from different tables or passages of the source.

From patent US20230136562A1, “SPIROUREA DERIVATIVES” (Idorsia Pharmaceuticals Ltd, priority 2020, published 2023) come the findings set out here.

For this assay, the system named is primary neuronal cultures from embryonic rat brains. Kind of assay: Rat oscillation assay (FLIPR, neuronal calcium oscillations). Type of assay: cell-based. The method, boiled down: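 Cortical neurons from E18 Wistar rat embryos, cultured 8–10 days at high density, loaded with 1 μM Fluo-8 AM; calcium oscillations recorded by FLIPR once per second in Mg-free HBSS with 2 mM CaCl2, 20 mM HEPES, pH 7.4. Two acquisitions ("Acute", 500 sec, compound added at 250 sec; "20 min"), ± Kv7 blocker XE-991.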

Setting [1] is: Rattus norvegicus, 20 min, AUC of fluorescence measured 20 min after compound addition, read-out: FLIPR: IC50 [nM] 20 min.
Setting [2] is: Rattus norvegicus, Acute phase, ratio of AUC fluorescence before and after compound addition, read-out: FLIPR: IC50 [nM] acute.

`O=C(NC1CC2(CC2)C1)NC(CO)c1cccc(C(F)(F)F)c1` (racemic) [Example 143, (±)-1-[2-Hydroxy-1-(3-trifluoromethyl-phenyl)-ethyl]-3-spiro[2.3]hex-5-yl-urea]: the concentration for half-maximal inhibition (IC50) came to 61 nM under setting [1] and 42 nM under setting [2].

In the case of `O=C(NC1CC2(CCC2)C1)NC(CCO)c1cccc(C(F)(F)F)c1` (racemic) [Example 74, (±)-1-[3-Hydroxy-1-(3-trifluoromethyl-phenyl)-propyl]-3-spiro[3.3]hept-2-yl-urea], the IC50 under setting [1] turned out to be 30 nM and the IC50 under setting [2] amounted to 27 nM.

On to `CC(C)(NC(=O)NC1CC2(CCC2)C1)c1ccnc(OC(F)F)c1` [Example 52, 1-[1-(2-Difluoromethoxy-pyridin-4-yl)-1-methyl-ethyl]-3-spiro[3.3]hept-2-yl-urea], for which the 50% inhibitory concentration (IC50) was determined as 143 nM under setting [1] and 72 nM under setting [2].

Take `O=C(NCc1cccc(C(F)(F)F)c1)NC1CC2(C1)CC2(F)F` (single isomer, unassigned) [Example 4, 1-(1,1-Difluoro-spiro[2.3]hex-5-yl)-3-(3-trifluoromethyl-benzyl)-urea]: the IC50 (AUC of fluorescence measured 20 min after compound addition, read-out: FLIPR: IC50 [nM] 20 min) amounted to 152 nM; the 50% inhibitory concentration (IC50) (Acute phase, ratio of AUC fluorescence before and after compound addition, read-out: FLIPR: IC50 [nM] acute) worked out at 175 nM.

Turning to `COc1ccc(C(F)(F)F)cc1C(C)NC(=O)NC1CC2(CCC2)C1` (racemic) [Example 20, (±)-1-[1-(2-Methoxy-5-trifluoromethyl-phenyl)-ethyl]-3-spiro[3.3]hept-2-yl-urea], the 50% inhibitory concentration (IC50) amounted to 304 nM under setting [1] and 508 nM under setting [2].

In the case of `NC(=O)C(NC(=O)NC1CC2(CCC2)C1)c1cccc(C(F)(F)F)c1` (racemic) [Example 62, (±)-2-(3-Spiro[3.3]hept-2-yl-ureido)-2-(3-trifluoromethyl-phenyl)-acetamide], the IC50 is, setting by setting: under setting [1], 65 nM; under setting [2], 50 nM.

As for `O=C(NCc1cccc(C(F)F)c1)NC1CC2(CCC2)C1` [Example 15, 1-(3-Difluoromethyl-benzyl)-3-spiro[3.3]hept-2-yl-urea], the half-maximal inhibitory concentration (IC50) was 126 nM under setting [1] and 124 nM under setting [2].

Take `O=C(NCc1ccnc(OC(F)(F)F)c1)NC1CC2(CCC2)C1` [Example 96, 1-Spiro[3.3]hept-2-yl-3-(2-trifluoromethoxy-pyridin-4-ylmethyl)-urea]: the 50% inhibitory concentration (IC50) turned out to be 61 nM under setting [1] and 82 nM under setting [2].

For the compound `CC(NC(=O)NC1CC2(CCC2)C1)c1cccc(OC(F)(F)F)c1` (stereo not drawn) [Example 119, 1-Spiro[3.3]hept-2-yl-3-[1-(3-trifluoromethoxy-phenyl)-ethyl]-urea], the IC50 is, setting by setting: under setting [1], 12 nM; under setting [2], 10 nM.

Take `NC(=O)CCC(NC(=O)NC1CC2(CCC2)C1)c1cccc(C(F)(F)F)c1` (racemic) [Example 79, (±)-4-(3-Spiro[3.3]hept-2-yl-ureido)-4-(3-trifluoromethyl-phenyl)-butyramide]: the IC50 under setting [1] stood at 634 nM and the IC50 under setting [2] was found to be 599 nM.

As for `CN(C)CC(NC(=O)NC1CC2(CCC2)C1)c1cccc(OCC(F)(F)F)n1` (racemic) [Example 48, (±)-1-{2-Dimethylamino-1-[6-(2,2,2-trifluoro-ethoxy)-pyridin-2-yl]-ethyl}-3-spiro[3.3]hept-2-yl-urea], the IC50 reads like this: under setting [1], 138 nM; under setting [2], 510 nM.

In the case of `Cc1nc(OCC(F)(F)F)cc(C(C)NC(=O)NC2CC3(CCC3)C2)n1` (racemic) [Example 68, (±)-1-{1-[2-Methyl-6-(2,2,2-trifluoro-ethoxy)-pyrimidin-4-yl]-ethyl}-3-spiro[3.3]hept-2-yl-urea], the IC50 by setting is: under setting [1], 18 nM; under setting [2], 18 nM.

In the case of `O=C(NC1CC2(CC2)C1)NC(c1cccc(C(F)(F)F)c1)C(F)F` (racemic) [Example 146, (±)-1-[2,2-Difluoro-1-(3-trifluoromethyl-phenyl)-ethyl]-3-spiro[2.3]hex-5-yl-urea], the IC50 turned out to be 6.6 nM under setting [1] and 4.2 nM under setting [2].

Consider `N#CCC(NC(=O)NC1CC2(CCC2)C1)c1cccc(OC(F)(F)F)c1` (racemic) [Example 66, (±)-1-[2-Cyano-1-(3-trifluoromethoxy-phenyl)-ethyl]-3-spiro[3.3]hept-2-yl-urea], for which the IC50 stood at 17 nM under setting [1] and 8.2 nM under setting [2].

On to `CC(NC(=O)NC1CC2(CCC2)C1)c1cccc(OCC(F)(F)F)c1` (racemic) [Example 90, (±)-1-Spiro[3.3]hept-2-yl-3-{1-[3-(2,2,2-trifluoro-ethoxy)-phenyl]-ethyl}-urea], for which the concentration for half-maximal inhibition (IC50) is 2.7 nM under setting [1] and 4 nM under setting [2].

Take `COc1ccc(C(F)(F)F)cc1CNC(=O)NC1CC2(CC2)C1` [Example 125, 1-(2-Methoxy-5-trifluoromethyl-benzyl)-3-spiro[2.3]hex-5-yl-urea]: the IC50 amounted to 1990 nM under setting [1] and 1820 nM under setting [2].

As for `CC(NC(=O)NC1CC2(CCC2)C1)c1cc(C(F)(F)F)ccc1Br` (racemic) [Example 19, (±)-1-[1-(2-Bromo-5-trifluoromethyl-phenyl)-ethyl]-3-spiro[3.3]hept-2-yl-urea], the half-maximal inhibitory concentration (IC50) turned out to be 274 nM under setting [1] and 337 nM under setting [2].

For the compound `COc1c(C(C)NC(=O)NC2CC3(CC3)C2)cccc1C(F)(F)F` (racemic) [Example 133, (±)-1-[1-(2-Methoxy-3-trifluoromethyl-phenyl)-ethyl]-3-spiro[2.3]hex-5-yl-urea], the concentration for half-maximal inhibition (IC50) under setting [1] turned out to be 670 nM and the IC50 under setting [2] was 396 nM.

`CS(=O)(=O)CCC(NC(=O)NC1CC2(CCC2)C1)c1cccc(C(F)(F)F)c1` (racemic) [Example 81, (±)-1-[3-Methanesulfonyl-1-(3-trifluoromethyl-phenyl)-propyl]-3-spiro[3.3]hept-2-yl-urea]: the 50% inhibitory concentration (IC50) was determined as 941 nM under setting [1] and 2180 nM under setting [2].

As for `CC(Oc1nccc(CNC(=O)NC2CC3(CCC3)C2)n1)C(F)(F)F` (racemic) [Example 118, (±)-1-Spiro[3.3]hept-2-yl-3-[2-(2,2,2-trifluoro-1-methyl-ethoxy)-pyrimidin-4-ylmethyl]-urea], the 50% inhibitory concentration (IC50) by setting is: under setting [1], 81 nM; under setting [2], 116 nM.

With `C[C@H](NC(=O)NC1CC2(CCC2)C1)c1cccc(OC(F)F)c1` (single isomer, unassigned) [Example 173], the IC50 under setting [1] was 11 nM and the IC50 under setting [2] turned out to be 7 nM.

Turning to `O=C(NCc1cc(F)cc(C(F)(F)F)c1)NC1CC2(CC2)C1` [Example 142, 1-(3-Fluoro-5-trifluoromethyl-benzyl)-3-spiro[2.3]hex-5-yl-urea], the IC50 came out at 277 nM under setting [1] and 204 nM under setting [2].

`CC(NC(=O)NC1CC2(CCC2)C1)c1ccc(F)c(OCC(F)(F)F)c1` (racemic) [Example 113, (±)-1-{1-[4-Fluoro-3-(2,2,2-trifluoro-ethoxy)-phenyl]-ethyl}-3-spiro[3.3]hept-2-yl-urea]: the half-maximal inhibitory concentration (IC50) under setting [1] worked out at 22 nM and the IC50 under setting [2] worked out at 33 nM.

`O=C(NCc1cccc(OC(F)(F)F)c1)NC1CC2(CCC2)C1` [Example 41, 1-Spiro[3.3]hept-2-yl-3-(3-trifluoromethoxy-benzyl)-urea]: the half-maximal inhibitory concentration (IC50) under setting [1] turned out to be 25 nM and the IC50 under setting [2] turned out to be 44 nM.

On to `C[C@@H](NC(=O)NC1CC2(CCC2)C1)c1ccnc(OC(F)F)c1` (single isomer, unassigned) [Example 167], for which the half-maximal inhibitory concentration (IC50) is, setting by setting: under setting [1], 1750 nM; under setting [2], 1280 nM.

On to `N#CCC(NC(=O)NC1CC2(CCC2)C1)c1cccc(C(F)(F)F)c1` (racemic) [Example 67, (±)-1-[2-Cyano-1-(3-trifluoromethyl-phenyl)-ethyl]-3-spiro[3.3]hept-2-yl-urea], for which the IC50 under setting [1] was found to be 11 nM and the half-inhibitory concentration (IC50) under setting [2] stood at 10 nM.

As for `Cn1nncc1C(NC(=O)NC1CC2(CCC2)C1)c1cccc(C(F)(F)F)c1` (racemic) [Example 165, (±)-1-[(3-Methyl-3H-[1,2,3]triazol-4-yl)-(3-trifluoromethyl-phenyl)-methyl]-3-spiro[3.3] hept-2-yl-urea], the IC50 came to 289 nM under setting [1] and 145 nM under setting [2].

In the case of `CC(C)(O)C(NC(=O)NC1CC2(CCC2)C1)c1cccc(C(F)(F)F)c1` (racemic) [Example 45, (±)-1-[2-Hydroxy-2-methyl-1-(3-trifluoromethyl-phenyl)-propyl]-3-spiro[3.3]hept-2-yl-urea], the concentration for half-maximal inhibition (IC50) under setting [1] is 628 nM and the concentration for half-maximal inhibition (IC50) under setting [2] is 549 nM.

On to `CS(=O)(=O)CC(NC(=O)NC1CC2(CCC2)C1)c1cccc(C(F)(F)F)c1` (racemic) [Example 69, (±)-1-[2-Methanesulfonyl-1-(3-trifluoromethyl-phenyl)-ethyl]-3-spiro[3.3]hept-2-yl-urea], for which the half-maximal inhibitory concentration (IC50) worked out at 83 nM under setting [1] and 95 nM under setting [2].

For the compound `CC(NC(=O)NC1CC2(CCC2)C1)c1cccc(C(F)(F)F)c1` (racemic) [Example 23, (±)-1-Spiro[3.3]hept-2-yl-3-[1-(3-trifluoromethyl-phenyl)-ethyl]-urea], the IC50 under setting [1] worked out at 4.6 nM and the half-inhibitory concentration (IC50) under setting [2] was 13 nM.

With `CN(CC(F)(F)F)c1cc(CNC(=O)NC2CC3(CCC3)C2)ccn1` [Example 115, 1-{2-[Methyl-(2,2,2-trifluoro-ethyl)-amino]-pyridin-4-ylmethyl}-3-spiro[3.3]hept-2-yl-urea], the IC50 under setting [1] is 241 nM and the half-maximal inhibitory concentration (IC50) under setting [2] was 185 nM.

Regarding `CC(NC(=O)NC1CC2(CCC2)C1)c1cc(OCC(F)(F)F)ncn1` (racemic) [Example 61, (±)-1-Spiro[3.3]hept-2-yl-3-{1-[6-(2,2,2-trifluoro-ethoxy)-pyrimidin-4-yl]-ethyl}-urea], the half-maximal inhibitory concentration (IC50) amounted to 25 nM under setting [1] and 14 nM under setting [2].

For `O=C(NCc1ccc(F)c(C(F)(F)F)c1)NC1CC2(CC2)C1` [Example 148, 1-(4-Fluoro-3-trifluoromethyl-benzyl)-3-spiro[2.3]hex-5-yl-urea], the IC50 under setting [1] was 355 nM and the half-inhibitory concentration (IC50) under setting [2] stood at 312 nM.
